The nature of data set [1]: Solubility of saturated solutions in acetone and tetrahydrofuran by HPLC. The following applies: saturated solution, after 24 hours.
Data set [2] in a line: Particle size distribution (PSD), laser particle size analyzer, wet process. The following applies: dispersion medium Isopar G. Type of data set: physicochemical. As to the method: The particle size distribution test in the present disclosure is acquired by the S3500 laser particle size analyzer of Microtrac. Microtrac S3500 is equipped with the Sample Delivery Controller. The test is carried out by wet process, and the dispersion medium is Isopar G. The parameters are as follow:
D10: The D10 describes the diameter where 10% of the distribution has a smaller particle size.
D50: The D50 describes the diameter where 50% of the distribution has a smaller particle size. The median is also called D50.
D90: The D90 describes the diameter where 90% of the distribution has a smaller particle size. Unless otherwise specified, the following examples were conducted at room temperature.

Data set [3] is described as follows: Hygroscopicity by dynamic vapor sorption (DVS). Type of data set: physicochemical. The following applies: for Weight gain 10% RH / Weight gain 20% RH / Weight gain 30% RH / Weight gain 40% RH / Weight gain 50% RH / Weight gain 60% RH: DVS 0-95%-0 RH cycle at 25° C. As for the experimental part: Dynamic Vapor Sorption (DVS) is measured via a SMS (Surface Measurement Systems Ltd.) intrinsic DVS. Its control software is DVS-Intrinsic control software, and its analysis software is DVS-Intrinsic Analsis software. Typical Parameters for DVS test are as follows:
Gas and flow rate: N2, 200 mL/min
RH range: 0% RH to 95% RH
Hygroscopicity of form III was measured in dynamic vapor sorption (DVS) instrument using 7.34 mg of form III obtained from example 6. The DVS plot is shown in FIG. 20, and the weight gain of form III at 80% RH is 6.48%.
6.5 mg of prior form 7 was placed in a DVS instrument, and subjected to a cycle of 0-95%-0RH at 25° C., the DVS plot is shown in FIG. 23.
9.2 mg of Form I was placed in a DVS instrument, and subjected to a cycle of 0-95%-0RH at 25° C., the DVS plot is shown in FIG. 24.
3.6 mg of Form II was placed in a DVS instrument and subjected to a cycle of 0-95%-0RH at 25° C., the DVS plot is shown in FIG. 25.

Data set [4] in a line: Storage stability (purity and XRPD crystalline form after storage). In kind it is physicochemical. As to the method:
Form II obtained from example 3 was stored under 25° C./60% RH for 90 days. XRPD patterns were collected before and after stored for 15 days, 30 days and 90 days.
Form III was stored under 25° C./60% RH and 40° C./75% RH for 300 days. XRPD patterns were collected after stored for 15 days, 30 days and 300 days.

The conditions of data set [5]: cited from earlier work.
The nature of data set [6]: Slurry/stirring in H2O/IPA solvent systems with different water activities, final form by XRPD. The following applies: 6 days. Type of data set: physicochemical. As for the experimental part:
Prior form 7 as starting material was stirred at room temperature in solvent systems with different water activities for 6 days, and tested.
Prior form 3 was stirred at room temperature in solvent systems with different water activities for 4 days, then the solid was tested.

Where [7] appears, read: listed as Form I of the present disclosure.
Where [8] appears, read: listed as Form II of the present disclosure.

Each structure is given as a SMILES string. Values after ≈ are worked out from the molar mass of the structure shown.

What is called Solubility is the dissolved amount per volume that the medium holds. Read a low Solubility as a poorly soluble substance. `c1cn2cc(-c3ccc4cn[nH]c4c3)nc(Nc3ccc(N4CCOCC4)cc3)c2n1` [Form I, 6-(1H-indazol-6-yl)-N-[4-(4-morpholinyl)phenyl] imidazo [1,2-a]pyrazin-8-amine] gave a Solubility in data set [1] (Acetone) of 0.061 mg/mL (≈ 148 µM). The compound further returned a Solubility in data set [1] (Tetrahydrofuran) of 0.048 mg/mL (≈ 117 µM). For the same compound, in data set [2] (setting [7]), the “D(10)” value is 10.23 μm, the “D(50)” value turned out to be 62.54 μm and the “D(90)” value came to 240.0 μm. In data set [3] (setting [7]), the “Weight gain 10% RH” value was 0.69%, the “Weight gain 20% RH” value came to 0.99%, the “Weight gain 30% RH” value is given as 1.33% and the “Weight gain 40% RH” value stood at 1.82%. The “Weight gain 60% RH” value in data set [3] (setting [7]) was 8.13%. The “Weight gain 50% RH” value in data set [3] was determined as 2.82%.
In data set [1] (Acetone), `c1cn2cc(-c3ccc4cn[nH]c4c3)nc(Nc3ccc(N4CCOCC4)cc3)c2n1` [Form II, 6-(1H-indazol-6-yl)-N-[4-(4-morpholinyl)phenyl] imidazo [1,2-a]pyrazin-8-amine] gave a Solubility of 0.026 mg/mL (≈ 63.2 µM). The Solubility in data set [1] (Tetrahydrofuran) came out at 0.018 mg/mL (≈ 43.7 µM). For the same compound, in data set [2] (setting [8]), the “D(10)” value is 4.15 μm, the “D(50)” value amounted to 27.48 μm and the “D(90)” value is given as 128.7 μm. In addition, in data set [4] (25° C./60%RH, 15 days), the “Crystalline form after storage” value is “Form II” and the Purity % is given as 99.50%. In data set [4] (25° C./60%RH, 30 days), the “Crystalline form after storage” value is reported as “Form II” and the Purity % was 99.78%. In data set [4] (25° C./60%RH, 90 days), the “Crystalline form after storage” value is “Form II” and the Purity % is listed as 99.52%. Moreover, in data set [4] (25° C./60%RH, initial), the “Crystalline form after storage” value was “Form II” and the Purity % is 99.64%. In addition, in data set [3] (setting [8]), the “Weight gain 10% RH” value was 1.41%, the “Weight gain 20% RH” value came to 1.98%, the “Weight gain 30% RH” value was 2.34% and the “Weight gain 40% RH” value turned out to be 2.65%. Further, in data set [3] (setting [8]), the “Weight gain 50% RH” value was 2.95% and the “Weight gain 60% RH” value is listed as 3.35%. Further, in data set [3] (DVS at 25° C., 0-70% RH), the “weight gain at 0-70% RH (in words)” value is listed as “doesn't show obvious weight gain”.
With `c1cn2cc(-c3ccc4cn[nH]c4c3)nc(Nc3ccc(N4CCOCC4)cc3)c2n1` [Form III, 6-(1H-indazol-6-yl)-N-[4-(4-morpholinyl)phenyl] imidazo [1,2-a]pyrazin-8-amine], the “Crystalline form after storage” value in data set [4] (25° C./60%RH, 15 days) is reported as “Form III”; in data set [4] (25° C./60%RH, 30 days), “Form III”; in data set [4] (25° C./60%RH, 300 days) it was “Form III”; in data set [4] (25° C./60%RH, initial), “Form III”; in data set [4] (40° C./75%RH, 15 days), “Form III”; in data set [4] (40° C./75%RH, 30 days), “Form III”. In addition, the “Crystalline form after storage” value in data set [4] (40° C./75%RH, 300 days) is “Form III”; in data set [4] (40° C./75%RH, initial), “Form III”. The Purity % is recorded as 99.71% in data set [4] (25° C./60%RH, 15 days); 99.78% in data set [4] (25° C./60%RH, 30 days); 99.56% in data set [4] (25° C./60%RH, 300 days); 99.82% in data set [4] (25° C./60%RH, initial); 99.68% in data set [4] (40° C./75%RH, 15 days); 99.73% in data set [4] (40° C./75%RH, 30 days). Besides, the Purity % in data set [4] (40° C./75%RH, 300 days) worked out at 99.47%; in data set [4] (40° C./75%RH, initial), 99.82%. Also, the “weight gain at 80% RH” value in data set [3] (DVS, 25° C., 80% RH) stood at 6.48%. Moreover, the “crystalline form after DVS test (XRPD)” value in data set [3] (solid collected after DVS) is given as “doesn't change”.
As to `CS(=O)(=O)O.CS(=O)(=O)O.c1cn2cc(-c3ccc4cn[nH]c4c3)nc(Nc3ccc(N4CCOCC4)cc3)c2n1` [Prior form 7, reference compound], in data set [2], the “D(10)” value is 3.41 μm, the “D(50)” value is given as 9.37 μm and the “D(90)” value was 37.69 μm. Besides, the “weight gain at 80% RH (prior crystalline forms)” value in data set [5] (80% RH) is on record as around 20%. For the same compound, the “hygroscopicity under various humidity conditions” value in data set [5] (various humidity conditions) is listed as “very high”. In addition, the Final crystalline form entry in data set [6] (H2O/IPA = 1:99, water activity 0.12, room temperature) is listed as “Form III of the present”. The Final crystalline form result in data set [6] (H2O/IPA = 3:97, water activity 0.3, room temperature) is on record as “Form III of the present”. Besides, the Final crystalline form entry in data set [6] (H2O/IPA = 6:94, water activity 0.5, room temperature) was “Form III of the present”. The Final crystalline form entry in data set [6] (H2O/IPA = 11:89, water activity 0.7, room temperature) is reported as “Form III of the present”. Besides, in data set [6] (H2O/IPA = 23:77, water activity 0.9, room temperature), the Final crystalline form entry is given as “Form III of the present”. In addition, the “Final crystalline form in all experiments” value in data set [6] (all water activities, room temperature) was “converted to form III”. In data set [3], the “Weight gain 10% RH” value is 1.68%, the “Weight gain 20% RH” value worked out at 2.78%, the “Weight gain 30% RH” value is reported as 4.61% and the “Weight gain 40% RH” value was found to be 10.04%. In addition, in data set [3], the “Weight gain 50% RH” value came to 11.00% and the “Weight gain 60% RH” value was 11.83%. Besides, the “Weight gain 40% RH” value in data set [3] (listed as prior form 7) was 10%.

The values above are taken from patent publication US10472369B2, “Crystalline forms of (6-(1H-indazol-6-yl)-N-[4-(4-(4-morpholinyl)phenyl]imidazo[1,2-A]pyrazin-8-amine) methanesulfonate” (Crystal Pharmatech Co., Ltd., priority 2016, dated 2019).
